Results taken from PMC11995216, “End-to-End Backbone Cyclization Enhances Passive Permeability of bRo5 Oligomeric Depsipeptides with Nonlinear Size Dependence” (ACS Medicinal Chemistry Letters, 2025).
Where “and” joins values, the source holds several entries; their conditions need not be identical. Equal entries are not always repeated. Where two headings read alike, the source gives them in different places.

Tests used:
[1] = calculated using Supplement Equation 1, UV detection
[2] = test system: PAMPA; details: UV detection
[3] = UV detection
[4] = test system: PAMPA; details: UV detection, initial concentration 500 uM
[5] = PAMPA, 500 uM
[6] = in vitro; details: PAMPA, Papp
[7] = initial concentration 500 uM, standard curve, UV detection

## CCCCC[C@H](OC(=O)[C@@H](C)N(C)C(=O)[C@H](CCCCC)OC(=O)[C@@H](C)N(C)C(=O)[C@H](CCCCC)OC(=O)[C@@H](C)N(C)C(=O)[C@H](CCCCC)OC(=O)[C@@H](C)N(C)C(=O)[C@H](CCCCC)OC(=O)[C@@H](C)N(C)C(=O)OC(C)(C)C)C(=O)OCc1ccccc1 [Compound L1.5]
[1]; Well 1 / %T, Well 1
  %T: 0.33% and 0.28%
[1]; Well 2 / %T, Well 2
  %T: 0.24% and 0.25%
[1]; Well 3 / %T, Well 3
  %T: 0.27%
[1]; Well 4 / %T, Well 4
  %T: 0.27% and 0.29%
[1]; Well 5 / %T, Well 5
  %T: 0.24% and 0.29%
[2]; Papp (x 10^-6 cm/s) / experiment 1
  Papp: 2.29 ×10⁻⁶ cm/s
[2]; Papp (x 10^-6 cm/s) / experiment 2
  Papp: 1.55 ×10⁻⁶ cm/s
[2]; Papp (x 10^-6 cm/s) / experiment 3
  Papp: 1.77 ×10⁻⁶ cm/s
[2]; Papp (x 10^-6 cm/s) / experiment 4
  Papp: 1.78 ×10⁻⁶ cm/s
[2]; Papp (x 10^-6 cm/s) / experiment 5
  Papp: 1.56 ×10⁻⁶ cm/s
[2]; Papp (x 10^-6 cm/s) / experiment 6
  Papp: 1.9 ×10⁻⁶ cm/s
[2]; Papp (x 10^-6 cm/s) / experiment 7
  Papp: 1.61 ×10⁻⁶ cm/s
[2]; Papp (x 10^-6 cm/s) / experiment 8
  Papp: 1.79 ×10⁻⁶ cm/s
[2]; Papp (x 10^-6 cm/s) / experiment 9
  Papp: 1.89 ×10⁻⁶ cm/s
[2]; Papp (x 10^-6 cm/s) / experiment 10
  Papp: 1.94 ×10⁻⁶ cm/s
[3]; Well 1 / %R, Well 1
  % recovery: 83% and 93%
[3]; Well 2 / %R, Well 2
  % recovery: 93% and 94%
[3]; Well 3 / %R, Well 3
  % recovery: 85% and 86%
[3]; Well 4 / %R, Well 4
  % recovery: 86% and 90%
[3]; Well 5 / %R, Well 5
  % recovery: 90% and 93%
[4]; Acceptor Concentration (uM) / experiment 1
  Acceptor Concentration: 50.2 µM
[4]; Acceptor Concentration (uM) / experiment 2
  Acceptor Concentration: 38.4 µM
[4]; Acceptor Concentration (uM) / experiment 3
  Acceptor Concentration: 40.2 µM
[4]; Acceptor Concentration (uM) / experiment 4
  Acceptor Concentration: 40.8 µM
[4]; Acceptor Concentration (uM) / experiment 5
  Acceptor Concentration: 37.5 µM
[4]; Acceptor Concentration (uM) / experiment 6
  Acceptor Concentration: 47.1 µM
[4]; Acceptor Concentration (uM) / experiment 7
  Acceptor Concentration: 40.3 µM
[4]; Acceptor Concentration (uM) / experiment 8
  Acceptor Concentration: 41 µM
[4]; Acceptor Concentration (uM) / experiment 9
  Acceptor Concentration: 45.3 µM
[4]; Acceptor Concentration (uM) / experiment 10
  Acceptor Concentration: 48 µM
[5]
  Δ % diffusion: ↑4%
[6]
  Papp at 500 uM: 1.81 ± 0.22 ×10⁻⁶ cm/s
[7]; Well 1 / [donor], Well 1
  donor concentration after incubation: 366 µM and 419 µM
[7]; Well 2 / [donor], Well 2
  donor concentration after incubation: 425 µM and 429 µM
[7]; Well 3 / [donor], Well 3
  donor concentration after incubation: 387 µM and 389 µM
[7]; Well 4 / [donor], Well 4
  donor concentration after incubation: 390 µM and 406 µM
[7]; Well 5 / [donor], Well 5
  donor concentration after incubation: 412 µM and 419 µM
